Values quoted from earlier work, collected in the PKSmart pharmacokinetics tables (Seal et al. 2025).

Legend:
[1] = Lombardo et al. 2013, J Clin Pharmacol 53:178, doi 10.1177/0091270012440282; conditions: for Vd / clearance: in vivo, iv; for fraction unbound: plasma
[2] = Lombardo, Berellini, Obach 2018, Drug Metab Dispos 46:1466, doi 10.1124/dmd.118.082966; conditions: human; for MRT / Vd / clearance / half-life: in vivo, iv; for fraction unbound: plasma

Compound	Vd ([1]; dog)	clearance ([1]; dog)	fraction unbound ([1]; dog)	Vd ([1]; monkey)	clearance ([1]; monkey)	fraction unbound ([1]; monkey)	Vd ([1]; rat)	clearance ([1]; rat)	fraction unbound ([1]; rat)	MRT [2]	Vd [2]	clearance [2]	half-life [2]	fraction unbound [2]
CC(C)NCC(O)COc1cccc2ccccc12 (centres undefined)	6.79 L/kg	51.8 mL/min/kg	0.04	2.28 L/kg	20.8 mL/min/kg	0.03	4.58 L/kg	94.3 mL/min/kg	0.1	4.3 h	3.1 L/kg	12 mL/min/kg	204 min	–
Cc1cccc(Nc2ccncc2S(=O)(=O)NC(=O)NC(C)C)c1	0.08 L/kg	0.14 mL/min/kg	0.02	–	–	–	0.23 L/kg	3.74 mL/min/kg	0.06	6.6 h	0.21 L/kg	0.53 mL/min/kg	306 min	–
CC1(C)S[C@@H]2C(NC(=O)C(N)c3ccc(O)cc3)C(=O)N2C1C(=O)O (some centres undefined)	0.31 L/kg	3.4 mL/min/kg	0.66	–	–	–	0.5 L/kg	17 mL/min/kg	–	1.3 h	0.25 L/kg	3.3 mL/min/kg	66 min	–
O=[N+]([O-])O[C@@H]1CO[C@H]2[C@@H]1OC[C@@H]2O	0.82 L/kg	6.9 mL/min/kg	–	–	–	–	–	2.5 mL/min/kg	–	5.8 h	0.7 L/kg	2 mL/min/kg	246 min	–
CN/C(=C\[N+](=O)[O-])NCCSCc1ccc(CN(C)C)o1	1.65 L/kg	–	–	–	–	–	2.87 L/kg	–	1	2.1 h	1.2 L/kg	–	126 min	–
Cc1nnc2n1-c1ccc(Cl)cc1C(c1ccccc1Cl)=NC2	–	–	–	–	–	–	3.4 L/kg	–	–	3.2 h	0.58 L/kg	–	162 min	–
C[C@H]1[C@H](OC(=O)CCC(=O)O)O[C@@H]2O[C@@]3(C)CC[C@H]4[C@H](C)CC[C@@H]1[C@@]24OO3	–	44 mL/min/kg	0.181	–	–	–	–	212 mL/min/kg	0.22	0.32 h	–	1070 mL/min/kg	13.2 min	0.25
CC(=O)Oc1ccccc1C(=O)O	–	–	–	–	–	–	0.4 L/kg	87 mL/min/kg	–	0.3 h	0.22 L/kg	12 mL/min/kg	15.6 min	0.68
COc1cc(Cc2cnc(N)nc2N)cc(OC)c1OC	1.74 L/kg	–	0.708	–	–	–	2.1 L/kg	–	0.51	12 h	1.5 L/kg	–	576 min	–
CC(C)NCC(O)COc1ccc(CCOCC2CC2)cc1 (centres undefined)	8.2 L/kg	20 mL/min/kg	0.47	–	–	–	12 L/kg	154 mL/min/kg	0.54	24 h	4.8 L/kg	3.4 mL/min/kg	1020 min	–
Cc1nnc2n1-c1ccc(Cl)cc1C(c1ccccc1)=NC2	–	–	–	–	–	–	2.7 L/kg	133 mL/min/kg	0.35	18 h	0.8 L/kg	0.74 mL/min/kg	720 min	–
O=c1[nH]cc(F)c(=O)[nH]1	–	–	–	–	–	–	0.25 L/kg	33 mL/min/kg	0.69	–	–	–	–	0.64
O=NN(CCCl)C(=O)NCCCl	1.1 L/kg	17.8 mL/min/kg	–	0.9 L/kg	21 mL/min/kg	–	–	–	–	0.26 h	1.2 L/kg	78 mL/min/kg	22.2 min	0.23
Nc1nc(C(=NO)C(=O)NC2C(=O)N3C(C(=O)O)=C(C=C4CCN(CC(F)(F)F)C4=O)CS[C@H]23)cs1 (some centres undefined)	0.18 L/kg	2.7 mL/min/kg	0.16	0.12 L/kg	0.77 mL/min/kg	0.05	0.15 L/kg	0.95 mL/min/kg	0.025	4.8 h	0.11 L/kg	0.38 mL/min/kg	228 min	0.043
COc1ccc2c3c1OC1C(=O)CC[C@@]4(O)[C@@H](C2)N(C)CC[C@]314 (some centres undefined)	–	–	–	–	–	–	–	–	0.87	–	–	–	–	0.55
CN(C)CCC=C1c2ccccc2CCc2ccccc21	–	–	–	–	–	–	11 L/kg	71 mL/min/kg	0.11	24 h	8.7 L/kg	6.1 mL/min/kg	1020 min	–
O=C(CCCN1CCC(O)(c2ccc(Cl)cc2)CC1)c1ccc(F)cc1	37 L/kg	–	–	3.7 L/kg	–	–	10.4 L/kg	–	0.24	36 h	17 L/kg	–	2100 min	–
Cn1nnnc1SCC1=C(C(=O)O)N2C(=O)C(NC(=O)C(O)c3ccccc3)[C@H]2SC1 (some centres undefined)	–	–	–	–	–	–	0.25 L/kg	21.8 mL/min/kg	–	0.75 h	0.16 L/kg	3.6 mL/min/kg	45 min	0.25
COc1cc2c3cc1Oc1cc(ccc1O)C[C@@H]1c4c(cc(OC)c([O-])c4Oc4ccc(cc4)C[C@@H]3N(C)CC2)CC[N+]1(C)C	0.37 L/kg	3.73 mL/min/kg	–	–	–	–	–	–	–	2.2 h	0.45 L/kg	3.4 mL/min/kg	120 min	0.58
CC(=O)Nc1nnc(S(N)(=O)=O)s1	–	–	–	–	–	–	0.21 L/kg	68 mL/min/kg	0.2	9.5 h	0.37 L/kg	0.65 mL/min/kg	–	0.04
COc1cc(NCc2ccc3nc(N)nc(N)c3c2C)cc(OC)c1OC	11.7 L/kg	33.2 mL/min/kg	1	1.56 L/kg	8.5 mL/min/kg	0.1	9.2 L/kg	71.1 mL/min/kg	–	17 h	0.77 L/kg	0.77 mL/min/kg	1020 min	0.05
Cc1cccc(C)c1NC(=O)NCCCNC(C)C	1.2 L/kg	13 mL/min/kg	0.7	3 L/kg	26.7 mL/min/kg	0.69	3.2 L/kg	82 mL/min/kg	0.88	5.2 h	1.4 L/kg	4.5 mL/min/kg	300 min	0.86
N[C@@H](CC(=O)N1CCn2c(nnc2C(F)(F)F)C1)Cc1cc(F)c(F)cc1F	3.3 L/kg	9.1 mL/min/kg	0.556	–	–	–	8.1 L/kg	45 mL/min/kg	0.68	7.8 h	2.8 L/kg	6 mL/min/kg	720 min	–
CON=C(C(=O)NC1C(=O)N2C(C(=O)[O-])=C(C[n+]3ccc(N)n3CCO)CS[C@H]12)c1csc(N)n1 (some centres undefined)	0.39 L/kg	3.5 mL/min/kg	–	0.28 L/kg	1.9 mL/min/kg	–	0.2 L/kg	9.6 mL/min/kg	–	2.78 h	0.3 L/kg	1.77 mL/min/kg	174 min	–
CNC1(c2ccccc2Cl)CCCCC1=O (centres undefined)	2.5 L/kg	32.2 mL/min/kg	0.47	–	–	–	3.68 L/kg	115 mL/min/kg	–	2.5 h	2.9 L/kg	19 mL/min/kg	168 min	0.47
COC(=O)C(c1ccccc1)C1CCCCN1 (centres undefined)	–	–	–	–	–	–	3 L/kg	53 mL/min/kg	–	4.5 h	2.2 L/kg	9.42 mL/min/kg	288 min	0.85
Nc1ccc(S(=O)(=O)Nc2ncccn2)cc1	–	–	0.78	0.5 L/kg	0.64 mL/min/kg	0.463	0.34 L/kg	1.1 mL/min/kg	0.86	8.8 h	0.29 L/kg	0.55 mL/min/kg	420 min	–
CC(C)(C)NCC(O)c1ccc(O)c(CO)c1 (centres undefined)	3.9 L/kg	–	0.05	–	–	–	30 L/kg	–	0.05	4.1 h	1.9 L/kg	–	–	–
CC(C)(C)NCC(O)COc1ccc(NC(=O)NC2CCCCC2)cc1 (centres undefined)	–	–	–	–	–	–	4.5 L/kg	47.5 mL/min/kg	–	11 h	3.3 L/kg	4.9 mL/min/kg	660 min	–
